Literature values in PMC7179450, “Primary Human Hepatocytes, But not HepG2 or Balb/c 3T3 Cells, Efficiently Metabolize Salinomycin and Are Resistant to Its Cytotoxicity” (Molecules, 2020).
Where two headings read alike, the source gives them in different places.

Tested on: all tested cell models
Design: method as in PMID 30012479
Details: cited from earlier work

Row | SMILES | cytotoxicity at tested concentrations (tiamulin 1 or 10 µg/mL) | cytotoxicity at tested concentrations (prednisolone 1 µg/mL)
1 | C=C[C@]1(C)C[C@@H](OC(=O)CSCCN(CC)CC)[C@]2(C)[C@H](C)CC[C@]3(CCC(=O)[C@H]32)[C@@H](C)[C@@H]1O [tiamulin] | non-cytotoxic | 
2 | C[C@]12C=CC(=O)C=C1CC[C@@H]1[C@@H]2[C@@H](O)C[C@@]2(C)[C@H]1CC[C@]2(O)C(=O)CO [prednisolone] |  | non-cytotoxic
